# From PubChem BioAssay (NCI)
# “And” between values parts separate entries of the source, which are not always exact repeats. Identical values can stand only once.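 Cultured in 96-well plates, cells were exposed to test compound for 48 hours across five concentrations. GI50: concentration for 50% inhibition of growth. TGI denotes the concentration required for complete inhibition of growth.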
# Assays:
# Experiment in all cases: NCI-60 cell line screen, 48 h
# SW-620 colon = tested on: SW-620 colon
# OVCAR-8 ovarian = tested on: OVCAR-8 ovarian
# NCI-H460 lung = tested on: NCI-H460 lung
# IGROV1 ovarian = tested on: IGROV1 ovarian
# OVCAR-3 ovarian = tested on: OVCAR-3 ovarian
# HCT-116 colon = tested on: HCT-116 colon
# SNB-75 CNS = tested on: SNB-75 CNS
# UO-31 renal = tested on: UO-31 renal
# TK-10 renal = tested on: TK-10 renal
# MDA-MB-231 breast = tested on: MDA-MB-231 breast
SMILES,TGI (SW-620 colon) [µM],TGI (OVCAR-8 ovarian),TGI (NCI-H460 lung),TGI (IGROV1 ovarian),TGI (OVCAR-3 ovarian),TGI (HCT-116 colon),TGI (SNB-75 CNS),TGI (UO-31 renal) [µM],TGI (TK-10 renal) [µM],TGI (MDA-MB-231 breast),GI50 (MDA-MB-231 breast),GI50 (OVCAR-8 ovarian),GI50 (IGROV1 ovarian),GI50 (TK-10 renal),GI50 (SNB-75 CNS),GI50 (SW-620 colon) [µM],GI50 (NCI-H460 lung) [µM],GI50 (OVCAR-3 ovarian) [µM],GI50 (UO-31 renal) [µM]
O=C(NN1C(=O)/C(=C/c2ccc(Cl)cc2)N=C1c1ccccc1)c1c(Cl)c(Cl)c(Cl)c(Cl)c1-c1nc2ccccc2[nH]1,> 100,> 100 µM,16.2 µM,> 100 µM,> 100 µM,45.2 µM,52.6 µM,> 100,,,,,,,,,,,
COc1ccc(OC)c2sc(N3C(=O)/C(=C/c4ccccc4S)N=C3c3ccccc3)nc12,> 100,> 100 µM,> 100 µM,> 100 µM,> 100 µM,78.2 µM,57.2 µM,77.2,> 100,> 100 µM,,,,,,,,,
CC(=O)OCCC[C@@H]1C(=C(C)C)CCC2[C@@]1(C)CC[C@@]1(C)C[C@](C)(CCC=C(C)C)CC[C@]21C (stereo not given in full),> 100,> 100 µM,> 100 µM,> 100 µM,> 100 µM,> 100 µM,> 100 µM,46.1,0.0632,> 100 µM,,,,,,,,,
O=C1c2scnc2-c2nccc3c2c1nc1ccccc13,,1.21 µM,1.58 µM,> 100 µM,> 100 µM,,1.92 µM,2.74,,,,,,,,,,,
CC(=O)C1=C(O)C2(O)C(=O)c3c(c(C)c4ccc(C)c(O)c4c3O)CC2C(N)C1=O (stereo not given),23.6,10.7 µM,9.2 µM,13 µM,13.2 µM,14 µM,16.7 µM,11.1,8.86,4.99 µM,0.73 µM,,,,,,,,
CCCCC1Cc2cc(OC)ccc2-c2nc3cc(OC)ccc3n21 (stereo not given) (tested in a mixture with another compound),27.8,31.6 µM,28.7 µM,23.1 µM,29.8 µM,22.8 µM,,24.7,35.5,25.7 µM,,,,,,,,,
Cc1c(N)nc([C@H](CC(N)=O)NC[C@H](N)C(N)=O)nc1C(=O)N[C@H](C(=O)N[C@H](C)[C@@H](O)[C@H](C)C(=O)N[C@H](C(=O)NCCc1nc(-c2nc(C(=O)NCCC[S+](C)C)cs2)cs1)[C@@H](C)O)C(OC1OC(CO)C(O)C(O)C1OC1OC(CO)C(O)C(OC(N)=O)C1O)c1cnc[nH]1 (stereo not given in full),,22.8 µM and 11.2 µM and 15.2 µM,13.1 µM and 7.63 µM and 31.6 µM,22.9 µM and 29 µM and 33.6 µM,29 µM [middle of 4 runs],20.9 µM [middle of 4 runs],6.42 µM and 13.4 µM and 18.8 µM,,,25 µM and > 100 µM,23.3 µM and 78.8 µM,1.49 µM and 1.59 µM,6.89 µM and 1.22 µM,2.36 µM and 20.4 µM,5.98 µM and 1.06 µM,,,,
COC1CCC(OS(C)(=O)=O)CO1 (stereo not given),,,> 100 µM,> 100 µM,> 100 µM,> 100 µM,> 100 µM,> 100,,,,,,,,,,,
O=C(O)C(Cc1ccccc1)N1C(=O)c2ccccc2C1=O (stereo not given),84.9,> 100 µM,> 100 µM,> 100 µM,> 100 µM,> 100 µM,,> 100,> 100,> 100 µM,,,,,,,,,
CN1CCC23c4ccccc4NC1C21CCN(C)C3Nc2ccccc21,> 375,> 37.5 µM,> 375 µM,> 375 µM,> 375 µM,> 375 µM,> 375 µM,> 375,,,,,,,,,,,
C[N+]1(C)C2CCC1CC(OC(=O)C(CO)c1ccccc1)C2 (stereo not given),> 100,> 100 µM,,> 100 µM,> 100 µM,> 100 µM,> 100 µM,> 100,> 100,> 100 µM,,,,,,,,,
O=C1CCC(NC(=O)Cc2ccc(O)cc2)C(=O)N1 (stereo not given),> 2500,> 2500 µM,> 2500 µM,> 2500 µM,> 2500 µM,> 2500 µM,> 2500 µM,> 2500,> 2500,,,,,,,,,,
CN1CCN(CCCOc2ccc3ncnc(Nc4ccc(Oc5cccc(C(F)(F)F)c5)c(Cl)c4)c3c2)CC1,3.45,10.7 µM,3.37 µM,2.43 µM,2.56 µM,,3.13 µM,2.44,3.09,3.15 µM,1.72 µM,2.78 µM,0.908 µM,1.5 µM,1.15 µM,1.76,1.73,1.09,1.21
Cc1c(Cl)c(=O)oc2cc(OCC(=O)c3ccccc3)ccc12,> 100,> 100 µM,> 100 µM,> 100 µM,> 100 µM,,,> 100,> 100,75.4 µM,,,,,,,,,
N=C(N)C(N=Nc1ccccc1)C(=N)N (stereo not given),> 100,> 100 µM,> 100 µM,> 100 µM,> 100 µM,> 100 µM,,> 100,> 100,97.8 µM,,,,,,,,,
Cc1nc(Cl)c(C)c(Cl)n1,> 100,> 100 µM,> 100 µM,34.5 µM,> 100 µM,> 100 µM,> 100 µM,,> 100,> 100 µM,,,,,,,,,
CCN(CC)/C(=C\Cl)Nc1ccccn1,> 100,> 100 µM,> 100 µM,> 100 µM,> 100 µM,> 100 µM,> 100 µM,> 100,> 100,,,,,,,,,,
CO[C@@]12C[C@@H](CNC(=O)c3cc(Br)c[nH]3)O[C@@H]1NC(=O)N2,> 100,> 100 µM,> 100 µM,> 100 µM,> 100 µM,> 100 µM,> 100 µM,> 100,> 100,> 100 µM,,,,,,,,,
